The test system of one data set is male SPF-ICR mice. Description: in vivo. To be noted: mouse, in vivo. The procedure:
(1) Acute toxicity test: • (i) To male SPF-ICR mice of 5 weeks old (supplied by Charles River Co.) were intraperitoneally administered PQQ·2Na and OPQs in the dosages of 20, 40, 80, 160 and 200 mg/kg body weight of mouse, respectively and they were bred at 25°C for 14 days. OPQ, 1-methylpropyl OPQ, 2-methylthioethyl OPQ, and benzyl OPQ were used as the OPQs. One group consisted of 8 mice. […] One group consisted of 8 mice. […] They were bred at 25°C for 14 days. One group consisted of eight mice. […] (2) Toxicity to kidney (i) Toxicity to kidney determined by urine examination: In the same manner as in the acute toxicity test, PQQ·2Na and OPQs were respectively intraperitoneally administered to mice and these mice were bred. Urine was collected every day and concentration of glucose in urine was obtained using Uristex II (manufactured by Miles·Sankyo Co.). […]

Data set [1] relates to carbon tetrachloride (CCl4)-induced liver diseases. The data set is described as follows: Pharmacological activity on carbon tetrachloride-induced liver diseases. In kind it is in vivo, SD rats. To be noted: 5mg/kg rat twice, CCl4 1 ml/kg rat.
Data set [2] addresses aldose reductase of kidney (Canis lupus familiaris, UniProt A0A8I3P2L6). Description: Inhibitory effect on aldose reductase of kidney. It is filed as biochemical, dog. To be noted: read-out: Degree of inhibition for aldose reductase (%); for inhibition at 1 µM: concentration 1x10^-6 M; for inhibition at 2 µM: concentration 2x10^-6 M. The protocol:
Medulla of kidney of dog was homogenized with 10mM phosphoric acid buffer (pH 7.0) containing 2mM dithiothreitol in an amount of four times the volume of kidney medulla and subjected to centrifugation. The supernatant liquid was purified by affinity chromatography, gel filtration and chromatofocusing to obtain electrophoretically homogeneous aldose reductase. 0.05 ml of 3mM NADPH, 0.1 ml of DL-glyceraldehyde and 0.04 ml of distilled water were added to 0.8 ml of 0.1M phosphoric acid buffer (pH 6.2) and left to stand at 25°C for 3 minutes. Then, 0.01 ml of the aldose reductase solution was added thereto to start reaction and decreasing of absorbance of 340 nm was measured at 25°C with time. Amount of enzyme which consumes 1 µmole of NADPH for 1 minute was taken as 1 unit.

Data set [3] in a line: Solubility of the isolated compound, described in words. It is filed as physicochemical. The settings on record: for solubility in water / solubility under neutral and alkaline conditions: water.
The subject of another data set is kidney. Description: Toxicity to kidney determined by blood examination. In kind it is in vivo, mice. The settings on record: serum; for Creatinine: Table 2, no administration 0.8; for Urea nitrogen: Table 2, no administration 24; for Glucose: Table 2, no administration 78. The procedure: After one day from administration, the mice were fasted (only water was given) and after lapse of 18 hours, blood was collected and serum was obtained therefrom. Glucose, urea nitrogen and creatinine in the serum were examined using FUJI Dry Chemslide (manufactured by Fuji Photo Film Co., Ltd.). […]
Thereafter, the mice were fasted (with giving only water) and after lapse of 18 hours, blood was collected and serum was obtained therefrom. Contents of glucose, urea nitrogen and creatinine in serum were obtained using FUJI Dry Chemslide. The results were shown by average value for eight mice.

The target in data set [4] is T1, aldose reductase of rabbit lens (Oryctolagus cuniculus, UniProt P15122).
T1 construct: to obtain electrophoretically homogeneous aldose reductase; from tissue; host or cells: rabbit lens
The data set is described as follows: Inhibitory effect on aldose reductase of lens. It is filed as biochemical. To be noted: read-out: Degree of inhibition for aldose reductase (%). The protocol:
0.05 ml of 3mM NADPH, 0.1 ml of DL-glyceraldehyde and 0.04 ml of distilled water were added to 0.8 ml of 0.1M phosphoric acid buffer (pH 6.2) and left to stand at 25°C for 3 minutes. Then, 0.01 ml of the aldose reductase solution was added thereto to start reaction and decreasing of absorbance of 340 nm was measured at 25°C with time. Amount of enzyme which consumes 1 µmole of NADPH for 1 minute was taken as 1 unit.
Enzyme activity was measured under the same conditions as in the above measurement of aldose reductase activity except that 0.04 ml of aqueous solution of inhibitory substance in various concentrations was added in place of 0.04 ml of distilled water and degree of inhibition was calculated from comparison of the enzyme activity with the enzyme activity obtained in the absence of inhibitor. (1) OPQ, (2) methyl OPQ, (3) 1-methylpropyl OPQ, (4) 2-methylpropyl OPQ, (5) 2-carbamoylethyl OPQ, (6) hydroxymethyl OPQ, (7) 2-methylthioethyl OPQ, (8) 2-carboxyethyl OPQ, (9) 4-hydroxybenzyl OPQ, (10) 1-methylethyl OPQ, and (11) benzyl OPQ were used as inhibition substances and (12) PQQ was used as control.
Lens of rabbit was homogenized with 10mM phosphoric acid buffer (pH 7.0) containing 2mM dithiothreitol in an amount of two times the volume of the lens and subjected to centrifugation. The supernatant liquid was purified by affinity chromatography, gel filtration and chromatofocusing to obtain electrophoretically homogeneous aldose reductase. Using (1) OPQ, (2) 1-methylpropyl OPQ, (3) 2-methylpropyl OPQ, (4) hydroxymethyl OPQ, and (5) 1-methylethyl OPQ as inhibition substances, degree of inhibition of these substances for aldose reductase of rabbit lens was examined in the same manner in Example 32.

A further data set relates to peritoneal macrophage. The data set is described as follows: Test on macrophage-chemotaxis after intraperitoneal administration. In kind it is in vivo, C3H/He mice. The settings on record: for (2) Chemotaxis factor was present: 50 % zymosan treated serum, no administration 40; for (2) - (1) Chemotaxied macrophage: no administration 29; for Relative activity of group (%): no administration = 100; for (1) Chemotaxis factor was not present: total number of chemotaxied macrophages at 3 points, no administration 11. The procedure:
Thirtytwo C3H/He mice (male, 7 weeks old, average body weight 20 g, supplied by Japan Charles River Co.) were divided into 4 groups (A - D) of 8 mice each.
A solution of OPQ in physiological saline of pH 7.0 was intraperitoneally administered to each mouse 7 times, namely, on the 1st day, 2nd day, 3rd day, 4th day, 5th day, 6th day and 7th day. Dosage for one administration per one mouse was as follows: That is, 0.2 ml of the solution containing 0.2 mg/ml of OPQ for group B, 0.2 ml of the solution containing 0.5 mg/ml of OPQ for group C, 0.2 ml of the solution containing 1.0 mg/ml of OPQ for group D and 0.2 ml of physiological saline for group A.
On the 8th day from starting of the experiment, the mice were anesthetized with ether and blood was drawn from carotid artery and 5 ml of cold Hanks solution was intraperitoneally injected and exudate cells for the abdominal cavity were collected. Exudate cells for the abdominal cavity of respective groups were gathered, washed three times with cold Hanks solution and suspended in RPMI medium at 5 x 10^5 cells/ml and macrophage-chemotaxis was measured. 50 % zymosan treated serum was used as chemotaxis factor and examination was conducted at three points for each sample. Number of chemotaxied macrophage was measured on microscope and 13 visual fields was examined for one point and the results are shown in Table 2. The value in the table is a total number of chemotaxied macrophages at 3 points for each sample. Preparation of Hanks solution and RPMI medium will be explained below.
Test on macrophage-chemotaxis was conducted in the same manner as in Example 36 except that hydroxymethyl OPQ was intraperitoneally administered to each mouce 3 times of the 1st day, the 2nd day and the 3rd day in the following dosage for one administration per one mouse: 0.2 ml of hydroxymethyl OPQ solution containing 0.5 mg/ml of hydroxymethyl OPQ for group B, 0.2 ml of the solution containing 1.0 mg/ml of hydroxymethyl OPQ for group C, and 0.2 ml of the solution containing 1.5 mg/ml of hydroxymethyl OPQ for group D and exudate cells for the abdominal cavity were collected on the 4th day from starting of experiment.
In Examples 36 - 40, macrophage activity was examined according to chemotaxis of peritoneal macrophage (literature 1) and activity of T cell and that of B cell were examined according to blast transformation reaction using concanavalin A and lipopolysaccharide, (LPS) as mitogen (literature 2). Literature 1: "Function of Macrophage and Method of Measurement of Function", pages 61-65 1985), edited by Educational Committee of Japan Bacteriological Society and published from Saikon Shuppan Co.) Literature 2: "New Method of Searching of Function of Lymphocytes", pages 350-355 (1987) edited by Junichi Yada and Michio Fujiwara and published from Chugai Igaku Co.

The mark [5] stands for this setting: 40 mg/kg mouse intraperitoneally.
The mark [6] stands for this setting: 80 mg/kg mouse intraperitoneally.
The mark [7] stands for this setting: 160 mg/kg mouse intraperitoneally.
Where [8] appears, read: 200 mg/kg mouse intraperitoneally.
[9] abbreviates: 5 mg/kg mouse x 3 days intraperitoneally.
[10] abbreviates: 10 mg/kg mouse x 3 days intraperitoneally.
Setting [11] is: 15 mg/kg mouse x 3 days intraperitoneally.

`O=C(O)c1cc(C(=O)O)c2c(n1)c1nc(Cc3ccccc3)oc1c1cc(C(=O)O)[nH]c12` [Benzyl OPQ, 5-Benzyl-2,8,10-tricarboxy-1H-oxazo[5,4-h]-pyrrolo-[2,3-f]-quinoline]: the death of mice result in the data set with male SPF-ICR mice was “no mice died”. Moreover, in data set [1] (Table 27: CCl4 only 1.2, no administration 0.5), the Total bilirubin worked out at 0.7 mg/dL. The GPT in data set [1] (Table 27: CCl4 only 818, no administration 16) is 233 U/l. For the same compound, in data set [1] (Table 27: CCl4 only 3308, no administration 144), the GOT was found to be 993 U/l. Also, in data set [2], the inhibition at 1 µM stood at 35.7% and the inhibition at 2 µM is 46.4%. In data set [2] (concentration 5x10^-6 M), the inhibition at 5 µM was found to be 63.3%. In addition, in data set [3], the “solubility in acetone and diethyl ether” value is “did not dissolve”; the “solubility in lower alcohols” value is “dissolved”; the solubility in water entry is recorded as “easily soluble”; the “solubility under neutral and alkaline conditions” value is given as “especially soluble”. In the data set on kidney (setting [5]), this compound gave a Creatinine of 0.7 mg/dL, a Urea nitrogen of 23 mg/dL and a Glucose of 90 mg/dL. In the data set on kidney (setting [6]), this compound gave a Creatinine of 0.7 mg/dL, a Urea nitrogen of 23 mg/dL and a Glucose of 87 mg/dL. In the data set on kidney (setting [7]), this compound displayed a Creatinine of 0.7 mg/dL, a Urea nitrogen of 26 mg/dL and a Glucose of 87 mg/dL. Moreover, in the data set on kidney (setting [8]), the Creatinine turned out to be 0.7 mg/dL, the Urea nitrogen came to 25 mg/dL and the Glucose amounted to 84 mg/dL.
For `O=C(O)c1cc(C(=O)O)c2c(n1)c1nc(CO)oc1c1cc(C(=O)O)[nH]c12` [Hydroxymethyl OPQ, 5-Hydroxymethyl-2,8,10-tricarboxy-1H-oxazo[5,4-h]-pyrrolo[2,3-f]-quinoline], in data set [2], the inhibition at 1 µM came out at 57.9% and the inhibition at 2 µM was determined as 68.2%. Besides, the inhibition at 0.2 µM in data set [2] (concentration 2x10^-7 M) was determined as 26.7%. Besides, in data set [2] (concentration 5x10^-7 M), the inhibition at 0.5 µM came to 41.1%. Also, the inhibition at 1 µM in data set [4] (concentration 1x10^-6 M) came out at 50.1%. Moreover, the inhibition at 2 µM in data set [4] (concentration 2x10^-6 M) turned out to be 60.4%. The inhibition at 0.5 µM in data set [4] (concentration 5x10^-7 M) was 31.9%. In addition, in data set [3], the “solubility in acetone and diethyl ether” value is reported as “did not dissolve”; the “solubility in lower alcohols” value is “dissolved”; the solubility in water entry was “easily soluble”; the “solubility under neutral and alkaline conditions” value is reported as “very easily soluble”. Besides, in the data set on peritoneal macrophage (setting [9]), the “(2) Chemotaxis factor was present” value is given as 61, the “(2) - (1) Chemotaxied macrophage” value was 44, the “Relative activity of group (%)” value turned out to be 152% and the “(1) Chemotaxis factor was not present” value is 17. Further, in the data set on peritoneal macrophage (setting [10]), the “(2) Chemotaxis factor was present” value amounted to 66, the “(2) - (1) Chemotaxied macrophage” value was 56, the “Relative activity of group (%)” value is 193% and the “(1) Chemotaxis factor was not present” value was 10. Besides, in the data set with peritoneal macrophage (setting [11]), the “(2) Chemotaxis factor was present” value came out at 48, the “(2) - (1) Chemotaxied macrophage” value came to 39, the “Relative activity of group (%)” value is 134% and the “(1) Chemotaxis factor was not present” value is 9.
